Data set [1] deals with allergic rhinitis. Kind of data set: Therapeutic effect on allergic rhinitis (nasal drops one hr after induction). As to conditions: for Dye leakage amount increase Inhibition ratio: nasal drops, one hr after administration of the antigen. It counts as in vivo, rat. The protocol:
In the same manner as in Test Example 4-1, the allergic reaction was induced, and the vascular permeability in the late phase of the allergic rhinitis was measured. In this case, however, for the evaluation of the therapeutic effect, compound A, Amlexanox, and Ketotifen were administered one hr after the induction of the allergic reaction. Since greenie was leaked, the dose was doubled (10 μL) so that the dispersion of the medicament within the nasal cavities is not inhibited, and the concentration of the medicament was regulated with physiological saline to the half of the concentration in the experiment on prophylactic effect to render the dose per individual identical.
The medicament was administered one hr after the administration of the antigen.

In data set [2] the test system is allergic rhinitis. Kind of data set: Prophylactic effect on allergic rhinitis (nasal drops immediately before induction). The class given is in vivo, rat. The following applies: for Increase in dye leakage amount Inhibition ratio: immediately before antigen administration. How it is done:
Male Sprague Dawley rats (n=6) were prepared. Bordetella pertussis (4×10^10) and 1 mg of dinitrophenylated ovalbumin (hereinafter referred to as “DNP-OA”) were subcutaneously administered into the footpad of the rats. […] After six hr from the antigen administration, Evans Blue (a dye) (50 mg/kg) was intravenously administered.
After nine hr from the induction of the allergic reaction, the nasal septal mucosa of the rats was harvested, and the weight of the tissue was measured. The tissue of the nasal septal mucosa was lysed with 1 N KOH, and the leakage amount of the dye was determined as an index of vascular permeability in the late phase of the allergic rhinitis.
In this case, physiological saline was administered instead of the antigen.
In the table, the inhibition ratio was calculated by the following equation. Inhibition(%)=100×{(B−A)−(C−A)}÷(B−A)
wherein A represents a negative control group (a nonsensitized group); B represents a control group; and C represents a medicament administered group.

For data set [3], the system named is allergic conjunctivitis. Kind of data set: Therapeutic effect on allergic conjunctivitis (instillation three hr after induction). It counts as in vivo, rat. The following applies: for Tissue weight increase: 5 μL/eye three hr after induction of the allergic reaction; for therapeutic effect on allergic conjunctivitis (in words): instillation three hr after induction. The protocol:
Compound A, Betamethasone, control group, and negative control group were administered at the same concentration as in Test Example 1-1, and the concentration of Betamethasone was as shown in Table 3. The test was carried out in the same manner as in Test Example 1-1, except that, three hr after the induction of the allergic reaction, for compound A, Betamethasone, control group, and negative control group were administered, the test solution was administered at a dose of 5 μL/eye to the right eye.

In data set [4] the test system is epithelial cells of cornea in human eyes. Nature of the data set: Toxicity against epithelial cells of cornea, 24-hr cell survival rate. It counts as cell-based. From the text: Specifically, toxicity against epithelial cells of cornea in human eyes was studied.
The next data set relates to rabbit eye (conjunctiva). Nature of the data set: Severe eye irritation test using rabbits. It counts as in vivo. The following applies: instillation six times per day at 30 min intervals for two days.
Data set [5] deals with allergic conjunctivitis. Nature of the data set: Prophylactic effect on allergic conjunctivitis (instillation before induction, late phase). It counts as in vivo, rat. As to conditions: for Inhibition ratio Increase in tissue weight: Test Example 1-2, medicament concentration 0.1%, instillation before induction; for Inhibition ratio (%) Increase in tissue weight: 5 μL/eye 15 min before induction; for Inhibition ratio (%) Increase in dye leakage amount: 15 min before induction, Evans Blue. The protocol: Male SD rats were prepared. Bordetella pertussis (4×10^10) and 1 mg of dinitrophenylated ovalbumin (hereinafter often abbreviated to “DNP-OA”) were subcutaneously administered into the footpad of the rats. After 8 to 10 days from the administration, a 3% DNP-OA solution was administered to the right eye of the rats to induce an allergic reaction. In some experiments, in order to confirm dye leakage and location of edema, a dye was injected, and, in the anatomy, the coincidence of dye leakage with the location of edema was confirmed. […] After 9 hr from the induction of the allergic reaction, the eyeballs of the rats were harvested. Further, lenses, hydatoids, and the contents of the vitreous body were removed from the eyeballs, and the weight of the tissues was measured. Furthermore, the dye leakage amount in the harvested eye tissue was measured. […] The absorbance (630 nm) of Evans Blue in the supernatant was measured with Multiskan JX (manufactured by Labsystem Ltd.). The amount of the dye was regarded as a dye leakage amount. […] For the control group, 0.15 M sodium hydrogencarbonate adjusted to pH 7.2 was administered. For a negative control group (a nonsensitization group), a 3% DNP-OA solution was administered to the right eye of the nonsensitized rats, and the solvent was used into the same manner as in the control group. The medicament or the solvent was administered to the right eye (5 μL/eye) 15 min before the induction of the allergic reaction. Compound A was administered at concentrations of 0.01%, 0.1%, and 1% for studies of dose response. In the table, the inhibition ratio was calculated by the following equation.

Data set [6] in a line: Concentration of compound A in the eye tissue after instillation. The class given is in vivo, rabbit. How it is done: A test solution (0.1% or 1%) of compound A in an isotonic borate buffer solution adjusted to pH 7.4 and a test solution (0.1%) of compound B in an isotonic borate buffer solution were provided, and 50 μL of each test solution was administered as ocular instillation to male rabbits.
The concentration of compound A in the eye tissue after instillation was measured as follows. At the outset, the tissue was removed from the test animals and was cryopreserved. Purified water (0.1 mL) was added to a sufficient quantity of the cryopreserved tissue and the like followed by homogenization. Thereafter, 0.5 mL of 0.1% phosphoric acid, 0.05 mL of an internal standard solution (a predetermined internal standard substance ([…]) described in WO 95/18130), 0.05 mL of acetonitrile, and 0.05 mL of purified water were added thereto. An extraction solvent (25% chloroform/diethyl ether) (8 mL) was added, and the mixture was shaken and centrifuged. Thereafter, 7 mL of the organic layer was evaporated to dryness under the negative pressure, and the residue was dissolved in 0.3 mL of a mobile phase to give an analyte. A liquid prepared by mixing and dissolving 0.55 g of tetraoxyl ammonium bromide into 450 mL of acetonitrile, 450 mL of 10 mM phosphate buffer solution, and 100 mL of methanol was used as the mobile phase. The concentration of compound A was measured by injecting 0.025 mL of the analyte into high-performance liquid chromatography (HPLC) (measurement conditions: fluorescence excitation 270 nm, emission 466 nm).
The concentration of only compound A in the eye tissue was measured because compound B is a prodrug of compound A.

Data set [7] deals with allergic conjunctivitis. Kind of data set: Prophylactic effect on allergic conjunctivitis (instillation before induction, late phase). It counts as in vivo, rat.
Where [8] appears, read: Test Example 4-2, nasal drops at concentrations of Table 9.
Setting [9] is: medicament concentration 0.1%, 0.5 μg/rat, 9 hr after induction.
[10] abbreviates: medicament concentration 1%, 5 μg/rat, 9 hr after induction.

Structures are written as SMILES. “And” between values parts separate entries of the source, which are not always exact repeats. Equal entries are not always repeated. Structures can show the parent of a compound that is named as a salt. Marks after values point to notes of the source that are not given here.

In the case of `CC(C)c1ccc2oc3nc(N)c(C(=O)O)cc3c(=O)c2c1` [Amlexanox], in the data set on allergic rhinitis [1] (0.125%, 25 μg/rat), the “Dye leakage amount increase Inhibition ratio” value was 25.0%. In addition, the “prophylactic effect on allergic rhinitis (in words)” value (“prophylactic effect” below) with allergic rhinitis [2] (setting [8]) was “had prophylactic effect on allergic rhinitis”. Further, the “Increase in dye leakage amount Inhibition ratio” value with allergic rhinitis [2] (Test Example 4-2, nasal drops, 0.25%, 25 μg/rat) is reported as 81.1% **.

Turning to `C[C@H]1C[C@H]2[C@@H]3CCC4=CC(=O)C=C[C@]4(C)[C@@]3(F)[C@@H](O)C[C@]2(C)[C@@]1(O)C(=O)COP(=O)([O-])[O-].[Na+].[Na+]` [Betamethazone, betamethazone sodium phosphate, reference compound], the Tissue weight increase in the data set with allergic conjunctivitis [3] (0.1%) was 74.8% **. Moreover, the “therapeutic effect on allergic conjunctivitis (in words)” value in the data set on allergic conjunctivitis [3] is listed as “potent therapeutic effect”.

Turning to `COc1cc2[nH]c(=O)c3nn[nH]c3c(=O)c2cc1OC` [Compound A, 7,8-Dimethoxy-4(5H),10-dioxo-1H-1,2,3-triazolo[4,5-c][1]benzazepine], the “non-toxic concentration relative to the maximum eye tissue concentration” value in data set [4] (0.3 mM versus 4.7 μM (0.1% liquid instillation)) is listed as “not less than 60 times”. The “toxicity against epithelial cells of cornea (24-hr cell survival rate)” value in data set [4] (concentration range of 100 nM to 0.3 mM) is given as “any toxicity was not observed”. Besides, the “therapeutic effect on allergic rhinitis (in words)” value in the data set on allergic rhinitis [1] (nasal drops one hr after antigen) is given as “exhibited therapeutic effect on the allergic rhinitis”. Also, in the data set on allergic rhinitis [1] (0.05%, 10 μg/rat), the “Dye leakage amount increase Inhibition ratio” value is on record as 93.8% **. Further, the eye irritation entry in the data set on rabbit eye (conjunctiva) (0.5%) is on record as “irritation was not observed at all”; with rabbit eye (conjunctiva) (3%) it was “only slight reddening of the conjunctiva was observed”. The results for the Tissue weight increase in the data set with allergic conjunctivitis [3] (0.01%), with allergic conjunctivitis [3] (0.1%) and in the data set with allergic conjunctivitis [3] (1%) were 70.3% **, 99.9% ** and 103.7% **, respectively. For the same compound, the “therapeutic effect on allergic conjunctivitis (in words)” value with allergic conjunctivitis [3] is “potent therapeutic effect”. Also, the “Inhibition ratio Increase in tissue weight” value (shortened to “Inhibition ratio Increase”) in the data set with allergic conjunctivitis [5] turned out to be 99.1% **. In addition, the “Inhibition ratio (%) Increase in tissue weight” value in the data set on allergic conjunctivitis [5] (medicament concentration 0.01%, 0.05 μg/rat, eye harvested 9 hr after induction) stood at 67.0% **; with allergic conjunctivitis [5] (setting [9]), 89.0% **; in the data set with allergic conjunctivitis [5] (setting [10]), 83.7% **. Further, the “Inhibition ratio (%) Increase in dye leakage amount” value with allergic conjunctivitis [5] (medicament concentration 0.01%, 0.05 μg/rat, 9 hr after induction) stood at 74.4% **; in the data set with allergic conjunctivitis [5] (setting [9]), 83.9% **; with allergic conjunctivitis [5] (setting [10]) it was 87.6% **. The “prophylactic effect” value in the data set with allergic rhinitis [2] (Test Example 4-1, nasal drops 0.01% to 1%) is on record as “effective against allergic rhinitis dose-dependently”; in the data set with allergic rhinitis [2] (setting [8]), “had prophylactic effect on allergic rhinitis”. For the same compound, the “Increase in dye leakage amount Inhibition ratio” value in the data set with allergic rhinitis [2] (Test Example 4-2, nasal drops, 0.1%, 10 μg/rat) is listed as 95.7% **; with allergic rhinitis [2] (nasal drops, 0.01%, 1 μg/rat, nasal septal mucosa 9 hr after induction) it was 52.9% **; in the data set on allergic rhinitis [2] (nasal drops, 0.1%, 10 μg/rat, 9 hr after induction) it was 111.7% **; in the data set with allergic rhinitis [2] (nasal drops, 1%, 100 μg/rat, 9 hr after induction), 123.1% **. In addition, the “maximum eye tissue concentration” value in data set [6] (instillation of a 0.1% liquid) was 1.29 μg/g and 4.7 μM. In addition, in data set [6] (male, eye tissue, topical, 50 μL of 1% solution, 1% test solution, 50 μL instillation, rabbit, 0.25 hr after instillation, average ± standard error), the concentration at 0.25 h is 6090 ± 2200 ng/g. In data set [6] (male, eye tissue, topical, 50 μL of 1% solution, 1% test solution, 50 μL instillation, rabbit, 1 hr after instillation), this compound displayed a concentration at 1 h of 1150 ± 830 ng/g. Besides, the concentration at 2 h in data set [6] (male, eye tissue, topical, 50 μL of 1% solution, 1% test solution, 50 μL instillation, rabbit, 2 hr after instillation) was 1260 ± 940 ng/g. In data set [6] (male, eye tissue, topical, 50 μL of 1% solution, 1% test solution, 50 μL instillation, rabbit, 4 hr after instillation), this compound yielded a concentration at 4 h of 1380 ± 540 ng/g. The concentration at 8 h in data set [6] (male, eye tissue, topical, 50 μL of 1% solution, 1% test solution, 50 μL instillation, rabbit, 8 hr after instillation) stood at 660 ± 420 ng/g. In data set [6] (male, eye tissue, topical, 50 μL of 1% solution, 1% test solution, 50 μL instillation, rabbit, 24 hr after instillation), this compound displayed a concentration at 24 h of 60 ± 60 ng/g.

As for `O=C(O)c1cc(=O)c2c(OCC(O)COc3cccc4oc(C(=O)O)cc(=O)c34)cccc2o1` [Cromoglycate, cromoglycate sodium], the “Inhibition ratio Increase” value in the data set with allergic conjunctivitis [7] (Test Example 1-2, medicament concentration 2%) is listed as 14.7%. Further, the “Increase in dye leakage amount Inhibition ratio” value in the data set with allergic rhinitis [2] (Test Example 4-2, nasal drops, 2%, 200 μg/rat) was determined as 2.9%.

In the case of `CC(=O)[C@@]1(O)CC[C@H]2[C@@H]3C[C@H](C)C4=CC(=O)C=C[C@]4(C)[C@@]3(F)[C@@H](O)C[C@@]21C` [Fluorometholone, fluorometholone, reference compound], the “Inhibition ratio Increase” value with allergic conjunctivitis [5] is recorded as 59.4% *.

`CCC(=O)O[C@]1(C(=O)SCF)[C@H](C)C[C@H]2[C@@H]3C[C@H](F)C4=CC(=O)C=C[C@]4(C)[C@@]3(F)[C@@H](O)C[C@@]21C` [Fluticasone, fluticasone propinate]: in the data set with allergic rhinitis [2] (Test Example 4-2, nasal drops, 0.051%, 5.1 μg/rat), the “Increase in dye leakage amount Inhibition ratio” value was 106.0% **.

With `CN1CCC(=C2c3ccccc3CC(=O)c3sccc32)CC1` [Ketotifen, ketotifen fumarate], the “Dye leakage amount increase Inhibition ratio” value in the data set on allergic rhinitis [1] (0.0275%, 5.5 μg/rat) turned out to be 48.6%. In the data set on allergic conjunctivitis [7] (Test Example 1-2, medicament concentration 0.05%), the “Inhibition ratio Increase” value came out at 13.4%. For the same compound, in the data set with allergic rhinitis [2] (setting [8]), the “prophylactic effect” value was “had prophylactic effect on allergic rhinitis”. Also, in the data set on allergic rhinitis [2] (Test Example 4-2, nasal drops, 0.055%, 5.5 μg/rat), the “Increase in dye leakage amount Inhibition ratio” value stood at 49.4%.

On to `C[C@@H]1CN([C@H]2CC[C@](C#N)(c3ccc(F)cc3)CC2)CC[C@]1(C(=O)O)c1ccccc1` [Levocabastine, levocabastine hydrochloride], for which the “Inhibition ratio Increase” value in the data set on allergic conjunctivitis [7] (Test Example 1-2, medicament concentration 0.025%) is 11.1%. Besides, in the data set on allergic rhinitis [2] (Test Example 4-2, nasal drops, 0.025%, 2.5 μg/rat), the “Increase in dye leakage amount Inhibition ratio” value came to 22.7%.
